From US10815247B2, “Functionalized NANOLUC inhibitors” (PROMEGA CORPORATION, priority 2016, dated 2020)
“Also recorded” adds a separate entry of the source.

Columns and labels:
[1] = test system: Nluc-HT fusion protein in HeLa cells; assay: Inhibition of Nluc luciferase in cells (FIG. 2A, 2B); format: cell-based; conditions: 2 hours at 37° C., furimazine 190 μM
[2] = target: Nluc-HT-TMR (Nluc-HT conjugated to TMR chloroalkane) (Oplophorus gracilirostris, UniProt Q9GV45, A31E/A60N/A81I/F95D/I117V/K70R/L54V/L99Q/M102K/N193R/P142E/Q151K/Q38R/Q45L/V71I/Y165I); assay: Inhibition of Nluc luciferase by JRW-0308 (FIG. 1); conditions: 0.05 nM protein in PBS/0.05% BSA, 2 hours at room temperature, furimazine 10 μM
Nluc-HT-TMR (Nluc-HT conjugated to TMR chloroalkane), sequence (Q9GV45 28-196 with tags or gaps with the stated changes limits assumed): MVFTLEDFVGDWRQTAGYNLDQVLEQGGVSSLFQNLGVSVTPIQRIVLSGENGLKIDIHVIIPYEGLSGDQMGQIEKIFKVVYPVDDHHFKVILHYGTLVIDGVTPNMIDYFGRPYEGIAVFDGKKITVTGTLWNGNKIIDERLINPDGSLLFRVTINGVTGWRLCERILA
Method: (§4) Samples were analyzed after addition of furimazine (10 μM final concentration) using a BMG Clariostar plate reader.

Nluc-HT fusion protein = assay: Inhibition of Nluc luciferase by JRW-0308 (FIG. 1); format: biochemical; conditions: 0.05 nM protein in PBS/0.05% BSA, 2 hours at room temperature, furimazine 10 μM
[3] = target: Nluc-HT-618 in HeLa cells (Oplophorus gracilirostris, UniProt Q9GV45, A31E/A60N/A81I/F95D/I117V/K70R/L54V/L99Q/M102K/N193R/P142E/Q151K/Q38R/Q45L/V71I/Y165I); assay: Inhibition of Nluc luciferase in cells (FIG. 2B); conditions: HeLa cells pre-labelled with 500 nM NanoBRET 618 ligand, 2 hours at 37° C., furimazine 190 μM
Nluc-HT-618 in HeLa cells, sequence (Q9GV45 28-196 with tags or gaps with the stated changes limits assumed): as above
Method: (§5) HeLa cells were reverse transfected with expression constructs for Nluc or Nluc-HT, plated (20,000 cells/100 μL growth medium) and incubated for 24 hours. […] HeLa cells were reverse transfected with expression constructs for Nluc or Nluc-HT, plated (20,000 cells/100 μL growth medium), and incubated for 24 hours.

NanoLuc [4] = target: T1, NanoLuc (Oplophorus gracilirostris, UniProt Q9GV45, A31E/A60N/A81I/F95D/I117V/K70R/L54V/L99Q/M102K/N193R/P142E/Q151K/Q38R/Q45L/V71I/Y165I); assay: Inhibitor IC50 determination; format: biochemical
T1 sequence (Q9GV45 28-196 with tags or gaps with the stated changes limits assumed): as above
Method: The following example provides the IC50 values for the compounds disclosed herein. NANOLUC® enzyme was diluted to 0.4 ng/ml in CO2 independent media+10% FBS to make the detection reagent. A 3× dilution series of each inhibitor was then made in the detection reagent. A “no inhibitor” control was also made for each sample. 50 ul of each inhibitor dilution was mixed with 50 ul of NanoGlo® buffer containing 20 μM furimazine (final furimazine concentration is 10 μM, which is at Km.), and luminescence was measured. Each sample was normalized to the “no inhibitor” control. The IC50 values were then determined using GraphPad Prism (log[inhibitor] vs. normalized response).

Nluc in HeLa cells = Nluc in HeLa cells (Oplophorus gracilirostris, UniProt Q9GV45, A31E/A60N/A81I/F95D/I117V/K70R/L54V/L99Q/M102K/N193R/P142E/Q151K/Q38R/Q45L/V71I/Y165I); assay: Inhibition of Nluc luciferase in cells (FIG. 2A); conditions: 2 hours at 37° C., furimazine 190 μM
Nluc in HeLa cells, sequence (Q9GV45 28-196 with tags or gaps with the stated changes limits assumed): as above
Method: as §5

Nluc = Nluc (Oplophorus gracilirostris, UniProt Q9GV45, A31E/A60N/A81I/F95D/I117V/K70R/L54V/L99Q/M102K/N193R/P142E/Q151K/Q38R/Q45L/V71I/Y165I); assay: Inhibition of Nluc luciferase by JRW-0308 (FIG. 1); conditions: 0.05 nM protein in PBS/0.05% BSA, 2 hours at room temperature, furimazine 10 μM
Nluc, sequence (Q9GV45 28-196 with tags or gaps with the stated changes limits assumed): as above
Method: as §4

NanoLuc [5] = target: T1, NanoLuc; assay: Suicide inhibition: displacement of inhibitor by furimazine upon dilution (FIG. 7); conditions: 10 μM Nluc + 10 μM inhibitor 30 minutes at RT, diluted to 10 pM, furimazine 10 uM
Method: Following dilution, 50 ul of the dilution was combined with 50 ul of NanoGlo® assay buffer.
Following dilution, 50 ul of the dilution was combined with 50 ul of NanoGlo® assay buffer. Final furimazine concentration was 10 uM.

NanoLuc [6] = target: T1, NanoLuc; conditions: inhibitor diluted to 3 uM, NanoLuc 0.4 ng/ml, 100 uM furimazine, read at two minute intervals
Method: Inhibitors were diluted to 3 uM into OptiMEM+0.1% FBS. NanoLuc was diluted to 0.4 ng/ml into NanoGlo® buffer+100 uM furimazine. 50 ul of each inhibitor was added to 50 ul of the NanoLuc/furimazine/NanoGlo® solution. Samples were immediately placed in a GloMax Multi+ set to read in kinetic mode at two minute intervals.
Inhibitors were diluted to 3 uM into OptiMEM+0.1% FBS. NanoLuc was diluted to 0.4 ng/ml into NanoGlo® buffer+100 uM furimazine. 50 ul of each inhibitor was added to 50 ul of the NanoLuc/furimazine/NanoGlo® solution. Samples were immediately placed in a GloMax® Multi+ set to read in kinetic mode at two minute intervals.

Cetux-Fab-Nluc = assay: EGFR/Cetuximab binding assay with inhibitor and PBS wash (FIG. 9); format: biochemical; conditions: 1 μM inhibitor for 5 or 30 minutes, PBS wash 0, 10, 30, or 60 minutes, furimazine 10 μM
Method: Cetux-Fab-Nluc competes with Cetuximab for binding of EGFR. […] Following the first reading, 1 μM inhibitor is added for a period of 5 minutes or 30 minutes. The plates were subsequently washed with PBS for 0, 10, 30, or 60 minutes.

[7] = test system: NanoBiT (LgBiT and HaloTag-HiBiT); assay: Multiplexing luciferases with the same wavelength (FIG. 11); format: biochemical; conditions: 100 uM JRW-0552 solution; LgBiT 200 nM, HaloTag-HiBiT 0.2 nM added after 50 minutes
Method: (§1) Three conditions are represented in this figure: 1) NanoLuc with JRW-0552; 2) NanoLuc and HiBiT with JRW-0552; and 3) NanoLuc and LgBiT with JRW-0552. At the 50 minute mark, an addition is done in each condition: 1) furimazine; 2) furimazine; and 3) LgBiT, furimazine, and HiBiT, respectively.
(§2) The following solutions were prepared in TBS+20 uM furimazine: 1) 0.4 ng/ml NanoLuc, 2) 0.4 ng/ml NanoLuc+0.2 nM HaloTag-HiBiT, 3) 0.4 ng/ml NanoLuc+200 nM LgBiT. 50 ul of each solution was combined in triplicate with a solution containing 100 uM JRW-0552 diluted into NanoGlo® buffer.
(§3) After 50 minutes, 100 ul of the following solutions were added to the corresponding samples: 1) NanoGlo® buffer+50 uM furimazine, 2) NanoGlo® buffer+50 uM furimazine+200 nM LgBiT, 3) NanoGlo® buffer+50 uM furimazine+0.2 nM HaloTag-HiBiT.

NanoLuc [8] = target: T1, NanoLuc; assay: as above; format: biochemical; conditions: 100 uM JRW-0552 solution in NanoGlo buffer, 0.4 ng/ml NanoLuc, kinetic read
Method: as §1, §2, §3

Compound | inhibition of Nluc-HT fusion protein in cells [1] | inhibition of Nluc-HT-TMR [2] | inhibition of Nluc-HT fusion protein (Nluc-HT fusion protein) | inhibition of Nluc-HT-618 in cells [3] | IC50 (NanoLuc [4]) | inhibition of Nluc in cells (Nluc in HeLa cells) | inhibition of Nluc alone (Nluc) | displacement of inhibitor by furimazine upon dilution (NanoLuc [5]) | reversibility of Nluc inhibition (NanoLuc [5]) | Nluc inhibition over time (kinetic light output) (NanoLuc [6]) | reversibility of inhibition after PBS wash (Cetux-Fab-Nluc) | activity of NanoBiT configurations in presence of inhibitor [7] | inhibition of NanoLuc signal (NanoLuc [8])
CCN(C(=O)Cn1c(C(=O)N[C@H]2CC[C@H](C(=O)NCCCCCCNC(=O)OCCOCCOCCOC(=O)NCCOCCOCCCCCCCl)CC2)cc2sccc21)c1cccc(C)c1 [JRW-0308] | potently inhibits | higher concentrations are required | potently inhibits | higher concentrations of JRW-0308 are necessary | 22 nM | higher concentrations are required | higher concentrations are required |  |  |  |  |  | 
CCN(C(=O)Cn1c(C(=O)N[C@H]2CC[C@H](C(=O)NCCCCCCCC(=O)ON3C(=O)CCC3=O)CC2)cc2sccc21)c1cccc(C)c1 [JRW-0552] |  |  |  |  | 2.9 nM |  |  | not displaced | irreversible inhibition; also recorded: irreversibly inhibit | time dependent inhibition | irreversible | remain operational | selectively inhibits
